Common to all, as to test: NCI tumour cell line growth inhibition, 48 h
For test [1], the system named is HCT-15 colon.
The subject of test [2] is HOP-62 NSCLC.
Test [3] deals with HOP-92 NSCLC.
The test system of test [4] is NCI-H522 lung.
Test [5] relates to OVCAR-3 ovarian.
Test [6] concerns RXF 393 renal.
The subject of test [7] is SF-539 CNS.
In test [8] the test system is SW-620 colon.
Test [9] concerns TK-10 renal.
The subject of test [10] is U251 CNS.

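These data come from cells grown in 96-well plates and exposed to compound for 48 hours at five concentrations. GI50 = concentration required for 50% inhibition of growth. TGI: concentration producing complete growth inhibition.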

Regarding `OCc1cccc(-c2ccc3ncc(-c4nc(NC5CC5)ncc4F)n3c2)c1`, the GI50 was 0.267 µM in [1]; 0.266 µM in test [2]; 0.303 µM in test [3]; 0.316 µM in test [4]; 0.27 µM in test [5]; 0.139 µM in [6]. Further, the GI50 is 0.162 µM in test [7], 0.258 µM in [8], 0.3 µM in test [9] and 0.25 µM in test [10]. Besides, the TGI in test [1] stood at 1.39 µM; in test [2], 2.7 µM; in [3], 0.901 µM; in [4] it was 2.34 µM; in test [5], 1.09 µM; in [6], 0.356 µM. The TGI in [7] is 0.454 µM; in test [8], 0.971 µM; in test [9], > 100 µM; in [10], > 100 µM.
With `CCc1ccc(-c2ccc(=O)n(-c3ccc(S(N)(=O)=O)cc3)n2)cc1`, the GI50 was 0.746 µM in [1]; 5.62 µM in test [2]; 5.55 µM in test [3]; 0.182 µM in test [4]; 0.957 µM in [5]; 3.89 µM in test [6]. Further, the GI50 in test [7] is 3.15 µM; in test [8] it was 0.56 µM; in test [9], 13.2 µM; in test [10], 3.36 µM. Also, the TGI in [1] is > 100 µM; in test [2] it was 30.5 µM; in [3], 43.1 µM; in test [4], 4.18 µM; in test [5], > 20.2 µM; in test [6], 31.5 µM. Moreover, the TGI in test [7] was 32.1 µM; in test [8], > 100 µM; in [9] it was 38.3 µM; in test [10], 29 µM.
`Cn1ccnc1C(c1nccn1C)C(C)(C)[N+](=O)[O-]`: the TGI in [1], in test [2], in test [3], in test [4], in test [5] and in [6] was > 100 µM throughout. In addition, the TGI in test [7], in [8], in [9] and in test [10] was > 100 µM in each case.
For the molecule `Cc1[nH]c(C(=O)Nc2ccc(C(=O)N3CCNCC3)cc2OC(C)C)c(Cl)c1Cl`, the GI50 in [1] was 1.82 µM; in [2], 1.81 µM; in [3], 1.62 µM; in test [4], 1.72 µM; in test [5], 2.19 µM; in test [6], 1.59 µM. For the same molecule, the GI50 in test [7] was 1.73 µM; in test [8], 1.9 µM; in [9] it was 1.8 µM; in test [10], 1.77 µM. Further, the TGI in [1] is 3.43 µM; in test [2] it was 4.65 µM; in test [3], 6.07 µM; in test [4] it was 3.42 µM; in test [5] it was 4.62 µM; in [6], 3.25 µM. The TGI in test [7] is 3.19 µM; in test [8] it was 3.59 µM; in test [9], 3.32 µM; in [10], 3.46 µM.
Consider `CCOCC(=O)N[C@H]1CCc2cc(OC)c(OC)c(OC)c2-c2ccc(SC)c(=O)cc21`, for which the TGI in [1] was > 18.1 µM; in [2], > 100 µM; in [3], > 100 µM; in test [4] it was < 0.01 µM; in test [5], < 0.0658 µM; in test [6] it was 2.33 µM. Also, the TGI in test [7] is < 0.01 µM; in test [8] it was > 100 µM; in test [9] it was > 100 µM; in [10], > 76.8 µM.
Consider `Nc1ccc(N=Nc2ccccc2)c(N)n1`, for which the GI50 is 35.8 µM in test [1]; 33.9 µM in [2]; 14.8 µM in [3]; 22.9 µM in test [4]; 20.2 µM in test [5]; 20.3 µM in [6]. The GI50 was 29.9 µM in test [7], 28.6 µM in test [8], 41.2 µM in test [9] and 29.8 µM in test [10]. For the same molecule, the TGI in [1] is > 100 µM; in test [2], > 100 µM; in test [3], 65.9 µM; in test [4], 86.2 µM; in test [5], 67.9 µM; in test [6], 60.7 µM. For the same molecule, the TGI in test [7], in [8], in test [9] and in [10] was > 100 µM in each case.
Turning to `COc1cc2c(cc1OCCCOC1=C=C=C(c3ccc4c(c3)c3cc(-c5ccc(OCCCOc6cc7c(cc6OC)C(=O)N6CCC[C@H]6C=N7)cc5)ccc3n4S(=O)(=O)c3ccc(C)cc3)C=C1)N=C[C@@H]1CCCN1C2=O`, the GI50 in test [1] was 7 µM; in test [2] it was 1.99 µM; in test [3], 0.79 µM; in test [4] it was 3.53 µM; in [5] it was 0.959 µM; in test [6] it was 1.17 µM. Besides, the GI50 was 1.74 µM in test [7], 1.16 µM in test [8], 1.27 µM in test [9] and 0.966 µM in test [10]. For the same molecule, the TGI was 20.3 µM in [1]; 8.6 µM in test [2]; 3.37 µM in [3]; 39.6 µM in test [4]; 2.23 µM in test [5]; 2.59 µM in test [6]. Also, the TGI in [7] amounted to 6.3 µM; in test [8] it was 6.33 µM; in test [9] it was 5.05 µM; in test [10] it was 2.87 µM.
As for `OCCCCC#Cc1ccccc1C#Cc1ccccc1F`, the GI50 in test [1] was 18 µM; in test [2] it was 12 µM; in test [3], 22 µM; in test [4], 16.3 µM; in test [5], 19.7 µM; in [6] it was 7.63 µM. Also, the GI50 was 22 µM in test [7], 22.2 µM in [8], 20.8 µM in test [9] and 16 µM in [10]. For the same molecule, the TGI was 32.5 µM in test [1]; 26.1 µM in test [2]; 64.2 µM in test [3]; 32.6 µM in test [4]; 43.6 µM in [5]; 25.6 µM in [6]. Besides, the TGI came to 48.4 µM in test [7], 44.4 µM in [8], 49.7 µM in [9] and 33.6 µM in test [10].

Source of the values: PubChem BioAssay (NCI).
